Values of other authors, collected in patent publication US20210346453A1, “COMPOSITIONS AND METHODS FOR TREATMENT OF COVID-19” (Cognitive Clarity Inc., priority 2020, published 2021).

Assays:
[1] = tested on: brain plaques and tangles; settings: aging brain
[2] = tested on: inflammation in brain (astrocytosis and microgliosis); settings: plaque-producing transgenic mice, within 3 months of treatment
COVID-19 = settings: compared to placebo

Row | Molecule | brain plaques and tangles [1] | reduction of inflammation in brain (astrocytosis and microgliosis) [2] | risk of being hospitalized or visiting the Emergency Room within 28 days after treatment (COVID-19)
1 | Oc1ccc([C@H]2Oc3cc(O)cc(O)c3[C@H](c3c(O)cc(O)c4c3O[C@H](c3ccc(O)c(O)c3)[C@H](O)C4)[C@H]2O)cc1 [epiafzelechin-4β-8-epicatechin] | inhibit and reduce | – | –
2 | Oc1cc(O)c2c(c1)O[C@H](c1ccc(O)c(O)c1)[C@@H](O)[C@@H]2c1c(O)cc(O)c2c1O[C@H](c1ccc(O)c(O)c1)[C@H](O)C2 [proanthocyanidin B4, catechin-4-α-8-epicatechin] | inhibit and reduce | – | –
3 | Oc1cc(O)c2c(c1)O[C@H](c1ccc(O)c(O)c1)[C@H](O)[C@H]2c1c(O)cc(O)c2c1O[C@H](c1ccc(O)c(O)c1)[C@H](O)[C@H]2c1c(O)cc(O)c2c1O[C@H](c1ccc(O)c(O)c1)[C@H](O)C2 [proanthocyanidin C1, epicatechin-4β-8-epicatechin-4β-8-epicatechin] | inhibit and reduce | – | –
4 | Oc1cc(O)c2c(c1)O[C@H](c1ccc(O)c(O)c1)[C@H](O)[C@H]2c1c(O)cc(O)c2c1O[C@H](c1ccc(O)c(O)c1)[C@H](O)C2 [Proanthocyanidin B2, epicatechin-4β-8-epicatechin] | inhibit and reduce | 69%-80.3% | –
5 | Bamlanivimab: monoclonal antibody treatment made by Eli Lilly | – | – | significantly reduce
